Measurements: patent US9181288B2, “Azepane derivatives and methods of treating hepatitis B infections” (Novira Therapeutics, Inc., priority 2014, dated 2015)

Columns and labels:
[1] = biological target: HBV C150Bo capsid protein (mutant C150 HBV core protein labeled with BODIPY-FL) (Hepatitis B virus genotype D subtype adw, UniProt P03147, C107A/C48A/C61A/R150C); test: HBV assembly assay (fluorescence quenching in vitro capsid assembly); format: biochemical; settings: at about 10 μM; 50 mM Hepes pH 7.5, 150 mM NaCl, 1 hour room temperature
[2] = tested on: HBV replication in HepG2-2.2.15 cells; test: Inhibition of HBV replication dot-blot assay; format: cell-based; settings: Hepatitis B virus, 144 h, six days, reduction in HBV DNA levels
Method: Compounds active in the HBV assembly assay are tested for their activity and toxicity in cellular assay. In the first anti-viral assay, the ability of compounds to inhibit HBV replication in an HBV-producing hepatoma cell line using the dot-blot method is evaluated.
Briefly, confluent monolayers of HepG2-2.2.15 cells are incubated with complete medium containing various concentrations of a test compound. Three days later, the culture medium is replaced with fresh medium containing the appropriately diluted test compound. Six days following the initial administration of the test compound, the cell culture supernatant is collected, and cell lysis is performed. The samples are applied onto Nylos membranes and DNA is immobilized to the membrane by UV cross-linking. After pre-hybridization, the HBV probe is added and the hybridization is performed overnight. The membranes are exposed to the Kodak films; antiviral activity is calculated from the reduction in HBV DNA levels (EC50). The EC50 for antiviral activity is calculated from the dose response curves of active compounds. Assay performance over time is monitored by the use of the standard positive control compounds ETV, BAY 41-4109, and HAP-1.
Selected compounds were tested for their activity and toxicity in cellular assay. In the first anti-viral assay, the ability of compounds to inhibit HBV replication in an HBV-producing hepatoma cell line using the dot-blot method was evaluated.
Confluent monolayers of HepG2-2.2.15 cells were incubated with complete medium containing various concentrations of a test compound. Three days later, the culture medium was replaced with fresh medium containing the appropriately diluted test compound. Six days following the initial administration of the test compound, the cell culture supernatant was collected, and cell lysis was performed. The samples were applied onto Nylos membranes and DNA was immobilized to the membrane by UV cross-linking. After pre-hybridization, the HBV probe was added and the hybridization was performed overnight. The membranes were exposed to the Kodak films; antiviral activity was calculated from the reduction in HBV DNA levels (EC50). The EC50 for antiviral activity was calculated from the dose response curves of active compounds. Assay performance over time was monitored by the use of the standard positive control compounds ETV, BAY 41-4109, and HAP-1.

HBV C150Bo capsid protein (mutant C150 HBV core protein labeled with BODIPY-FL), sequence (P03147 1-150 C48A/C61A/C107A/R150C): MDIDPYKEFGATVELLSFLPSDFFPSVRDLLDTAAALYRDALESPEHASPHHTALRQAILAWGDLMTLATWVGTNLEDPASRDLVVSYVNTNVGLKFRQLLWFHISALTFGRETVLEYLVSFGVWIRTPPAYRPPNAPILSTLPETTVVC

Row | SMILES | Activity (HBV assembly assay) [1] | inhibition at 10 µM [2] [%]
1 | CC1(O)COCCN(S(=O)(=O)c2cc(C(=O)Nc3ccc(F)c(Cl)c3)ccc2F)C1 (stereo not shown) [Compound 1986] | + (‘+’ indicates >50% activity at about 10 μM) | > 50
2 | O=C(Nc1ccc(F)c(Cl)c1)c1ccc(F)c(S(=O)(=O)N2CCOC[C@@H](O)C2)c1 [Compound 1893_E1] | + (‘+’ indicates >50% activity at about 10 μM) | > 50
3 | CC1(O)CCCN(S(=O)(=O)c2cc(C(=O)Nc3ccc(F)c(F)c3)ccc2F)CC1 (stereo not shown) [Compound 1938] | + (‘+’ indicates >50% activity at about 10 μM) | > 50
4 | O=C(Nc1cc(F)c(F)c(F)c1)c1ccc(F)c(S(=O)(=O)N2CCOCC(O)C2)c1 (stereo not shown) [Compound 1895] | + (‘+’ indicates >50% activity at about 10 μM) | > 50
5 | CC1(O)CCCCN(S(=O)(=O)c2cc(C(=O)Nc3ccc(F)c(F)c3)ccc2F)C1 (stereo not shown) [Compound 1891] | + (‘+’ indicates >50% activity at about 10 μM) | > 50
6 | O=C(Nc1cc(F)c(F)c(F)c1)c1ccc(F)c(S(=O)(=O)N2CCCCC(F)(F)C2)c1 [Compound 2121] | + (‘+’ indicates >50% activity at about 10 μM) | > 50
7 | CC(=O)O[C@@H]1CC[C@H](O)CN(S(=O)(=O)c2cc(C(=O)Nc3ccc(F)c(Cl)c3)ccc2F)C1 [Compound 2619_D2] | + (‘+’ indicates >50% activity at about 10 μM) | > 50
8 | CC1(O)CCCCN(S(=O)(=O)c2cc(C(=O)Nc3cc(F)c(F)c(F)c3)ccc2F)C1 (stereo not shown) [Compound 1892] | + (‘+’ indicates >50% activity at about 10 μM) | > 50
9 | O=C(Nc1ccc(F)c(Cl)c1)c1ccc(F)c(S(=O)(=O)N2C[C@H](O)CC[C@H](O)C2)c1 [Compound 2433_D2, N-(3-chloro-4-fluoro-phenyl)-3-(3,6-dihydroxyazepan-1-yl)sulfonyl-4-fluoro-benzamide] | + (‘+’ indicates >50% activity at about 10 μM) | > 50
10 | O=C(Nc1ccc(F)c(Cl)c1)c1ccc(F)c(S(=O)(=O)N2CCCC(O)C(O)C2)c1 (stereo not shown) [Compound 1909] | – | > 50
11 | O=C(Nc1cc(F)c(F)c(F)c1)c1cccc(S(=O)(=O)N2CCOCC(O)C2)c1 (stereo not shown) [Compound 1975] | + (‘+’ indicates >50% activity at about 10 μM) | > 50
12 | O=C(Nc1cc(F)c(F)c(F)c1)c1ccc(CF)c(S(=O)(=O)N2CC(O)CC3CC3C2)c1 (stereo not shown) [Compound 2550] | + (‘+’ indicates >50% activity at about 10 μM) | > 50
13 | CC(=O)O[C@@H]1CC[C@H](OC(C)=O)CN(S(=O)(=O)c2cc(C(=O)Nc3cc(F)c(F)c(F)c3)ccc2F)C1 [Compound 2625_D2] | + (‘+’ indicates >50% activity at about 10 μM) | > 50
14 | O=C(Nc1ccc(F)c(Cl)c1)c1ccc(F)c(S(=O)(=O)N2CCC[C@@H](O)CC2)c1 [Compound 1766_E1] | + (‘+’ indicates >50% activity at about 10 μM) | > 50
15 | O=C(Nc1cc(F)c(F)c(F)c1)c1ccc(F)c(S(=O)(=O)N2CCC[C@H](O)C(F)C2)c1 (stereo partly shown) [Compound 1829_D2] | + (‘+’ indicates >50% activity at about 10 μM) | > 50
16 | Cc1ccc(C(=O)Nc2ccc(F)c(F)c2)cc1S(=O)(=O)N1CCCCC(O)C1 (stereo not shown) [Compound 1914] | + (‘+’ indicates >50% activity at about 10 μM) | > 50
17 | CC(=O)O[C@@H]1CC[C@@H](O)CN(S(=O)(=O)c2cc(C(=O)Nc3cc(F)c(F)c(F)c3)ccc2F)C1 [Compound 2618_D1] | + (‘+’ indicates >50% activity at about 10 μM) | > 50
18 | O=C(Nc1ccc(F)c(Cl)c1)c1ccc(F)c(S(=O)(=O)N2CCCC[C@H](O)C2)c1 [Compound 1763_E2] | + (‘+’ indicates >50% activity at about 10 μM) | > 50
19 | COc1ccc(C(=O)Nc2ccc(F)c(Cl)c2)cc1S(=O)(=O)N1CCCC(O)C(F)C1 (stereo not shown) [Compound 2114_D2] | + (‘+’ indicates >50% activity at about 10 μM) | –

Row | SMILES | Activity (HBV assembly assay) [1] | inhibition at 10 µM [2] [%]
20 | O=C(Nc1cc(F)c(F)c(F)c1)c1ccc(CCF)c(S(=O)(=O)N2CCCC(O)CC2)c1 (stereo not shown) [Compound 2206] | + (‘+’ indicates >50% activity at about 10 μM) | > 50
21 | O=C(Nc1cc(F)c(F)c(F)c1)c1ccc(F)c(S(=O)(=O)N2CCC(O)C(F)(F)CC2)c1 (stereo not shown) [Compound 2202] | + (‘+’ indicates >50% activity at about 10 μM) | > 50
22 | O=C(Nc1ccc(F)c(F)c1)c1ccc(F)c(S(=O)(=O)N2CCCC(F)C(O)C2)c1 (stereo not shown) [Compound 1821] | + (‘+’ indicates >50% activity at about 10 μM) | > 50
23 | O=C(Nc1ccc(F)c(Cl)c1)c1ccc(CF)c(S(=O)(=O)N2CCCCCC2)c1 [Compound 2004] | + (‘+’ indicates >50% activity at about 10 μM) | > 50
24 | COc1ccc(C(=O)Nc2ccc(F)c(F)c2)cc1S(=O)(=O)N1CCOCC(O)C1 (stereo not shown) [Compound 1979] | + (‘+’ indicates >50% activity at about 10 μM) | > 50
25 | O=C(Nc1ccc(F)c(Cl)c1)c1ccc(CO)c(S(=O)(=O)N2CCCC(F)CC2)c1 (stereo not shown) [Compound 1769] | + (‘+’ indicates >50% activity at about 10 μM) | > 50
26 | O=C(Nc1ccc(F)c(Cl)c1)c1ccc(F)c(S(=O)(=O)N2C[C@H](O)CC[C@@H](O)C2)c1 [Compound 2433_D1] | + (‘+’ indicates >50% activity at about 10 μM) | > 50
27 | O=C(Nc1ccc(F)c(Cl)c1)c1ccc(CF)c(S(=O)(=O)N2CCCC(O)CC2)c1 (stereo not shown) [Compound 1916] | + (‘+’ indicates >50% activity at about 10 μM) | –
28 | O=C(Nc1cc(F)c(F)c(F)c1)c1ccc(F)c(S(=O)(=O)N2CCCC(O)CC2)c1 (stereo not shown) [Compound 1765] | + (‘+’ indicates >50% activity at about 10 μM) | > 50
29 | O=C(Nc1ccc(F)c(Cl)c1)c1ccc(CCF)c(S(=O)(=O)N2CCCC(O)CC2)c1 (stereo not shown) [Compound 2205, N-(3-chloro-4-fluoro-phenyl)-4-(2-fluoroethyl)-3-(4-hydroxyazepan-1-yl)sulfonyl-benzamide] | + (‘+’ indicates >50% activity at about 10 μM) | > 50
30 | O=C(Nc1cc(F)c(F)c(F)c1)c1ccc(F)c(S(=O)(=O)N2CCCC(O)C(F)(F)C2)c1 (stereo not shown) [Compound 2199] | + (‘+’ indicates >50% activity at about 10 μM) | > 50
31 | O=C(Nc1ccc(F)c(Cl)c1)c1ccc(F)c(S(=O)(=O)N2CC(O)CC3CC3C2)c1 (stereo not shown) [Compound 2492] | + (‘+’ indicates >50% activity at about 10 μM) | > 50
32 | O=C(Nc1ccc(F)c(Cl)c1)c1ccc(F)c(S(=O)(=O)N2CCCC(F)[C@H](O)C2)c1 (stereo partly shown) [Compound 1822_D2] | + (‘+’ indicates >50% activity at about 10 μM) | > 50
33 | O=C(Nc1ccc(F)c(Cl)c1)c1ccc(F)c(S(=O)(=O)N2CCOC[C@H](O)C2)c1 [Compound 1893_E2] | + (‘+’ indicates >50% activity at about 10 μM) | > 50
34 | O=C(Nc1ccc(F)c(Cl)c1)c1ccc(F)c(S(=O)(=O)N2CCOCC(O)C2)c1 (stereo not shown) [Compound 1893] | + (‘+’ indicates >50% activity at about 10 μM) | > 50
35 | CC(=O)O[C@@H]1CC[C@H](OC(C)=O)CN(S(=O)(=O)c2cc(C(=O)Nc3ccc(F)c(Cl)c3)ccc2F)C1 [Compound 2626_D2] | + (‘+’ indicates >50% activity at about 10 μM) | > 50
36 | O=C(Nc1ccc(F)c(F)c1)c1ccc(F)c(S(=O)(=O)N2CCCC(F)[C@@H](O)C2)c1 (stereo partly shown) [Compound 1821_D1] | + (‘+’ indicates >50% activity at about 10 μM) | > 50
37 | O=C(Nc1cc(F)c(F)c(F)c1)c1ccc(F)c(S(=O)(=O)N2CC(O)CC3CC3C2)c1 (stereo not shown) [Compound 2548] | + (‘+’ indicates >50% activity at about 10 μM) | > 50
38 | O=C(Nc1cc(F)c(F)c(F)c1)c1ccc(F)c(S(=O)(=O)N2CCCC(F)C(O)C2)c1 (stereo not shown) [Compound 1820] | + (‘+’ indicates >50% activity at about 10 μM) | > 50
